Measured values from patent US9421237B2, “Tripeptide boronic acid or boronic ester, preparative method and use thereof” (PEKING UNIVERSITY, priority 2009, dated 2016).

Columns and labels:
[1] = tested on: BGC-823 human gastric cancer cell; test: Preliminary anti-tumor screening in vitro, SRB method; type: cell-based; parameters: key to Test results: +++: inhibition rates at three doses are greater than 50%; ++: inhibition rates at two doses are greater than 50%; +: inhibition rate at one dose is greater than 50%; conditions: BGC-823, SRB; for Test results: number of doses with inhibition > 50%; for inhibition at 0.05 µM / inhibition at 0.5 µM / inhibition at 5 µM: Homo sapiens, read-out: Inhibition rate %
Summary of the method: (§1)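 In vitro cytotoxicity by routine methods: MTT read-out for HL-60 cells, SRB read-out for BGC-823, Bel-7402 and KB cells.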

[2] = tested on: Bel-7402 human hepatocarcinoma cell; test: as above; type: cell-based; parameters: key to Test results: +++: inhibition rates at three doses are greater than 50%; ++: inhibition rates at two doses are greater than 50%; +: inhibition rate at one dose is greater than 50%; conditions: Bel-7402, SRB; for Test results: number of doses with inhibition > 50%; for inhibition at 0.05 µM / inhibition at 0.5 µM / inhibition at 5 µM: Homo sapiens, read-out: Inhibition rate %
Summary of the method: as §1

[3] = tested on: KB human nasopharyngeal carcinoma cell; test: as above; type: cell-based; parameters: key to Test results: +++: inhibition rates at three doses are greater than 50%; ++: inhibition rates at two doses are greater than 50%; +: inhibition rate at one dose is greater than 50%; conditions: for inhibition at 0.05 µM / inhibition at 0.5 µM / inhibition at 5 µM: Homo sapiens, read-out: Inhibition rate %; for Test results: number of doses with inhibition > 50%
Summary of the method: as §1

murine H22 cells = test: In vivo anti-tumor activity, H22 tumor in ICR mice, oral administration; conditions: for Animal numbers Start/End / Body weight (g) (X ± SD): ICR mice with H22; for Inhibition rate (%) / Tumor weight (g) (X ± SD): tumors weighed at 12th day
Experimental: Animal: ICR mice, half male and half female (18-22 g), provided by Laboratory Animal Science Department of Peking Medical University.
Tumor cell strain: murine H22 cells were provided by cell bank of pharmacological group of the State Key Laboratory of Natural and Biomimetic Drugs.
Method: Murine tumor cells were taken to be treated, and diluted to 5×10^6 cells/ml after treatment. The diluted tumor cells solution was inoculated to the left forelimb oxter of the mice with 0.2 ml/mouse under aseptic condition. 24 h after inoculation, the mice were divided into groups and orally administered once per day to the mice in each group for 10 days. At the 12th day, the tumors were peeled off and weighed, and the average weight of the tumor, standard deviation (SD) and p-value of each group were calculated.

[4] = tested on: HL-60 human leukemia cell; test: Preliminary anti-tumor screening in vitro, MTT method; type: cell-based; parameters: key to Test results: +++: inhibition rates at three doses are greater than 50%; ++: inhibition rates at two doses are greater than 50%; +: inhibition rate at one dose is greater than 50%; conditions: HL-60, MTT; for Test results: number of doses with inhibition > 50%; for inhibition at 0.05 µM / inhibition at 0.5 µM / inhibition at 5 µM: Homo sapiens, read-out: Inhibition rate %
Summary of the method: as §1

[5] = target: T1, 20S proteasome extracted from rat liver, peptidyl-glutamyl-peptide-hydrolyzing (PGPH) enzyme activity (Rattus norvegicus, UniProt P28073+Q9JHW0); test: Proteasome inhibition, PGPH activity, fluorescent peptide Z-leu-leu-Glu-βNA; type: biochemical; conditions: rat liver 20S proteasome, 37° C., 1 h
T1 construct: 20S proteasome extracted from rat liver; from tissue; host or cells: rat liver
Summary of the method: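 Rat liver 20S proteasome (1 μg) incubated 1 h at 37 °C with compounds, 50 μM fluorogenic peptide and 20 mM Tris-HCl. AMC release read at 380/440 nm and βNA release at 335/410 nm. Inhibition rate calculated against a 0.1% DMSO solvent control.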

[6] = tested on: BGC-823 (human gastric carcinoma cell strain); test: In vitro anti-tumor activity (IC50), standard MTT method; type: cell-based; conditions: 72 h, average of three determinations
Experimental: (§2) HL-60, BXPC-3 and U266 were obtained from the American Type Culture Collection (Manassas, Va.), and BGC-823 (human gastric carcinoma cell strain) was obtained from China Pharmaceutical University.
(§3) Test methods: HL-60 cells were cultured in IMDM medium containing 20% fetal bovine serum at 37° C. in 5% CO2; BGC-823 cells and BXPC-3 cells were cultured in RPMI1640 medium containing 10% fetal bovine serum at 37° C. in 5% CO2; U266 cells were cultured in RPMI1640 medium containing 15% fetal bovine serum at 37° C. in 5% CO2.
(§4) The cell growth was measured by the standard MTT method. A dispersions (150 μL, containing 3000 cells) medium was added into each well of a 96-well plate and allowed to grow, after 24 h, ten kinds of medium (50 μL) containing different concentrations of drugs were added into the corresponding wells, and continued to incubate for 72 h. Then a solution containing 5 mg/ml MTT (20 μL) was added into each well and incubated for another 4 h at 37° C. The plate was then centrifugated at 1000 rpm at 4° C. for 5 min, and the medium in upper layer was carefully discarded. The precipitates were dissolved in 100 μL of DMSO, and absorbance was read with an Infinite M200 (Tecan, Austria) microplate reader at 540 nm.
(§5) The result was expressed as IC50 value, which is the average value of three independent determinations.

[7] = tested on: BXPC-3 (human pancreatic cancer cell strain); test: as above; type: cell-based; conditions: 72 h, average of three determinations
Experimental: as §2, §3, §4, §5

[8] = tested on: U266 (multiple myeloma cell strain); test: as above; type: cell-based; conditions: Homo sapiens, U-266, 72 h, average of three determinations
Experimental: as §2, §3, §4, §5

[9] = tested on: HL-60 (promyelocytic leukemia cell strain); test: as above; type: cell-based; conditions: Homo sapiens, 72 h, average of three determinations
Experimental: as §2, §3, §4, §5

[10] = 1 mg/kg orally once per day for 10 days
[11] = 2 mg/kg orally once per day for 10 days

Row | SMILES | Test results [1] | inhibition at 0.05 µM [1] | inhibition at 0.5 µM [1] | inhibition at 5 µM [1] | Test results [2] | inhibition at 0.05 µM [2] | inhibition at 0.5 µM [2] | inhibition at 5 µM [2] | inhibition at 0.05 µM [3] | inhibition at 0.5 µM [3] | inhibition at 5 µM [3] | Test results [3] | Animal numbers Start/End (murine H22 cells; [10]) | Body weight (g) (X ± SD) (murine H22 cells; [10]) | Inhibition rate (%) (murine H22 cells; [10]) | Tumor weight (g) (X ± SD) (murine H22 cells; [10]) | Animal numbers Start/End (murine H22 cells; [11]) | Body weight (g) (X ± SD) (murine H22 cells; [11]) | Inhibition rate (%) (murine H22 cells; [11]) | Tumor weight (g) (X ± SD) (murine H22 cells; [11]) | also measured
1 | CC(C)C[C@H](NC(=O)[C@H](Cc1ccc2ccccc2c1)NC(=O)[C@H](Cc1ccccc1)NC(=O)c1cnccn1)B(O)O [Compound 6g, N-pyrazineformyl-L-phenylalanyl-L-naphthylalanyl-L-leucine Boronic Acid] | +++ | 76.9% | 95.5% | 97.1% | ++ | 37.9% | 72.2% | 93.4% | 59.4% | 96% | 96.7% | +++ | 8/8 | -1.28 ± 2.83 g | 34.24% | 0.82 ± 0.36 g | 8/8 | -0.53 ± 2.58 g | 56.33% | 0.54 ± 0.28 g | Toxicity in the in vivo anti-tumor test, compared with bortezomib (PS341) (murine H22 cells; ICR mice with H22, oral): even lower; Test results [4]: ++; inhibition at 0.05 µM [4]: 5.68%; inhibition at 0.5 µM [4]: 87.8%; inhibition at 5 µM [4]: 88.6%; IC50 [5]: 3.8 ± 0.983 nM; IC50 [6]: 1040 nM; IC50 [7]: 28.7 nM; IC50 [8]: 15.8 nM; IC50 [9]: 7.4 nM
2 | CC(C)C[C@H](NC(=O)[C@H](Cc1ccc2ccccc2c1)NC(=O)[C@H](CC(C)C)NC(=O)c1cnccn1)B(O)O [Compound 6f, N-pyrazineformyl-L-leucyl-L-naphthylalanyl-L-leucine Boronic Acid] | +++ | 80.3% | 95.5% | 96.8% | ++ | 39.4% | 90.6% | 93.7% | 32.1% | 95.7% | 97.8% | ++ | 8/6 | 1.49 ± 1.07 g | 51.67% | 0.60 ± 0.16 g | 8/5 | 0.04 ± 4.29 g | 55.34% | 0.56 ± 0.17 g | Test results [4]: ++; inhibition at 0.05 µM [4]: 1.26%; inhibition at 0.5 µM [4]: 87.4%; inhibition at 5 µM [4]: 88.6%; IC50 [5]: 3.63 ± 1.67 nM; IC50 [6]: 600 nM; IC50 [7]: 21.2 nM; IC50 [8]: 9.9 nM; IC50 [9]: 4.6 nM
